Measurements as given in patent publication US9757350B2, “Small molecule inhibitors of replication protein A that also act synergistically with cisplatin” (Indiana University Research and Technology Corp., priority 2010, dated 2017).
“Also recorded” adds a separate entry of the source.

What was measured:
[1] = test system: H460 cells; assay: Crystal violet cell viability assay, H460; type: cell-based
Method: Referring now to FIG. 11A. Gel showing effect of MCI13E on DNA-RPA binding. […] Cytotoxicity was analyzed via crystal violet analysis as described in “methods” 48 hours following MCI13E treatment. Data represent the average and standard deviation of four replicate experiments with each replicate containing triplicate determinations and the circles represent data from H460 cells and squares A549 cells. Referring now to FIG. 11C. Graph of MCI13E induced death via apoptosis in NSCLC cell lines. Cell were treated with the indicated concentrations of MCI13E for 48 hours and analyzed for the induction of apoptosis via Annexin V/PI staining Referring now to FIG. 11D. Graph of cell survival as a function of [MCI1EC]. Percent survival was calculated for each cell line using untreated cells as a control. Data presented are the average and standard deviation from four replicate experiments. Experiments were performed in non-small cell lung cancer (NSCLC) cell lines A549 (squares), an adenocarcinoma, and the large cell carcinoma H460 cell line (circles).
Cell Viability Assays—A crystal violet cell viability assay was performed to determine cytotoxicity of SMI. Lung cancer cell lines, A549 and H460, were plated in 24-well dishes at 5×10^4 total cells. Forty-eight hours after plating, the cells were treated for […] with variable concentrations of SMIs. The media was aspirated, cells washed with 500 μl of PBS/EDTA and stained for 10 minutes with crystal violet solution (50% Ethanol, 0.75% crystal violet). Stained cells were resuspended in 500 μl DMSO containing 1% SDS and absorbance was measured at 590 nm in a SpectraMax M5 plate reader (Molecular Devices, Sunnyvale, Calif.) and analyzed using SoftMax Pro 5.2. Percent viability is taken as an absorbance percentage against control untreated cells. Values plotted represent four separate plate replicates and each plate replicate contained three assay replicates per plate.

[2] = test system: A549 cells; assay: Combination index study with cisplatin (Chou-Talalay), crystal violet; type: cell-based; details: for Interaction with cisplatin, sequential treatment: A549, cisplatin 24 h, then SMI 24 h
Method: Synergy with cisplatin—Analyses thus far indicate that inhibition of RPA is effective in eliciting effects consistent with inhibition of RPAs role in cell cycle progression and DNA replication. To assess if SMI treatment impacts RPAs role in DNA repair, how MCI13E or MCI13F treatment influences cellular sensitivity to cisplatin was assessed. […] Cisplatin-induced DNA damage is primarily repaired via NER and homologous recombination. […] Initially, a concurrent approach, similar to that described for another RPA SMI, TDRL-505 (1) was used. Briefly, A549 cells were treated for 48 hours with MCI13E, cisplatin, or combination treatment, with viability determined via crystal violet staining. […] Next, a sequential treatment protocol was used, first treating cells with cisplatin for 24 hours, then adding the SMI and incubating for an additional 24 hours.
Combination Index—Studies Combination index studies, performed with combination SMI and cisplatin treatment, were used to determine the level of synergy or antagonism between the two compounds. Referring now to FIG. 19A, a schematic illustrating Sequential treatment with cisplatin and MCI13E, and FIG. 19B, a schematic illustrating concurrent treatment with cisplatin and MCI13E. Cells received the same concentration of cisplatin or MCI13E but the time the cells were treated with cisplatin varied whereas treatment time with MCI remained the same between the two treatment methods.
Briefly, A549 cells were plated as described above in 24-well dishes (5×10^4 cells per well) and treated either concurrently or sequentially with single agent cisplatin or MCI treatment or with combination treatments. […] Following 48 hours of total treatment cells were analyzed for viability using the crystal violet assay described above and combination index values were calculated based on the Chou and Talalay method (15) as we have previously described (1,23).

[3] = biological target: T1, RPA DBD-A/B (Homo sapiens, UniProt P27694); assay: EMSA DNA binding assay, RPA DBD-A/B construct
T1 construct: made in house; host or cells: E. coli BL21(DE3)
Method: DBD-A/B. The sequence encoding the RPA p70 DNA binding domains A and B were subcloned from the hrRPA plasmid (provided by Dr. Marc Wold, University of Iowa) into the pET15b (Novagen) vector and the protein was expressed in BL21(DE3) cells (Stratagene) as previously described. Briefly, cells were grown to an OD600 of 0.8, induced with 0.5 mM isopropyl-1-thio-β-D-galactopyranoside (IPTG) at 37° C. for 2-3 hours. Small scale DBD-A/B preparations were obtained from 1 L cultures and following induction, cells were harvested by centrifugation at 700×g for 30 minutes at 4° C. The pellets were suspended in Buffer A (20 mM Tris, pH 7.5, 10% glycerol, 500 mM NaCl, 10 mM β-mercaptoethanol (BME) and 1 μg/mL phenylmethanesulfonylfluoride (PMSF), leupeptin and pepstatin) at 1 mL/gram of cells. The cells were lysed by sonication and insoluble material sedimented at 15,000×g for 30 minutes at 4° C. The supernatant was then loaded onto a 10 mL phosphocellulose column, equilibrated with Buffer A, and the flow-through material collected. Imidazole was added to 5 mM to the flow through which was then loaded onto a 2 mL nickel-NTA-agarose column. The column was then washed with Buffer A containing 50 mM imidazole after which protein was eluted from the column using a gradient from 50-500 mM imidazole. Fractions were analyzed for protein content using Bradford and SDS-PAGE analysis in addition to assessment of DNA binding activity as determined by anisotropy. Fractions containing the DBD-A/B protein were pooled and dialyzed overnight in Buffer B (1 mM HEPES, pH 7.2, 10 mM dithiothreitol (DTT), 50 mM NaCl and 1 μg/mL PMSF, pepstatin and leupeptin) and aliquots stored at −80° C.
RPA and DBD-A/B Binding. EMSAs were performed as previously described (22) using a 30-base purine rich ssDNA substrate (3Pc3). […] Gels were dried and quantified via phosphorimager analysis and ImageQuant software (Molecular Dynamics).

T1 sequence (P27694 181-422 limits assumed): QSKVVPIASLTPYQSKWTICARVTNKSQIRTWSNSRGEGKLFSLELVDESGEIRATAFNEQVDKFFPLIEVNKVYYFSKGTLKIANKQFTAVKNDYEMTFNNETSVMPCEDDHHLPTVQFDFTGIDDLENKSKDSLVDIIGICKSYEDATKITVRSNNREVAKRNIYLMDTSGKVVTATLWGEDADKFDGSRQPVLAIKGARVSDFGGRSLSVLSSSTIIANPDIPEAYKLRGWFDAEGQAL

Row | SMILES | IC50 ([1]; 48 hours, crystal violet) | Interaction with cisplatin, concurrent treatment ([2]; A549, 48 hours together) | Interaction with cisplatin, sequential treatment [2] | Inhibition of DBD-A/B DNA binding [3] | IC50 ([1]; 48 hours after exposing the cells)
1 | CC1(C)C2CCC1(C)C(OC(=O)CBr)C2 (racemic) [MCI13E, (+/−)-Isobornyl bromoacetate] | ~5 µM | antagonistic effect | synergizing with cisplatin at higher dosing concentrations | no inhibitory activity; also recorded: completely ineffective | 
2 | CC1(C)C2CCC1(C)C(OC(=O)CI)C2 (racemic) [MCI13F, (+/−)-Isobornyl iodoacetate] | ~5 µM |  | synergy with cisplatin at all tested concentrations | no inhibitory activity; also recorded: completely ineffective | 4 µM
